Reference: paper PMC5458547, “Discovery of first-in-class reversible dual small molecule inhibitors against G9a and DNMTs in hematological malignancies” (Nature Communications, 2017)

Assays:
PEER = test: Cell proliferation assay (MTS); format: cell-based; conditions: Homo sapiens; ALL, 48 h
NOMO-1 = test: Cell proliferation assay (MTS); format: cell-based; conditions: Homo sapiens, AML, 48 h
WM-35 = test: Cell proliferation assay (MTS); format: cell-based; conditions: Homo sapiens, WM35; Melanoma
ATAD2B = target: T1, ATAD2B (Homo sapiens, UniProt Q9ULI0); test: Epigenetics selectivity panel (BPS Bioscience); format: binding
T1 construct: purchased DiscoverX KINOMEscan (kinases); BPS Bioscience (epigenetic targets)

BRD4(BD1+BD2) = target: T2, BRD4(BD1+BD2) (Homo sapiens, UniProt O60885); test: Epigenetics selectivity panel (BPS Bioscience); format: binding
T2 construct: BRD2(BD1+BD2), BRD4(BD1+BD2), BRDT(BD1); purchased BPS Bioscience (contract panel)

KMS28BM = test: Cell proliferation assay (MTS); format: cell-based; conditions: Homo sapiens, KMS-28BM; MM
DNMT3A = target: T3, DNMT3A (Homo sapiens, UniProt Q9Y6K1); test: Epigenetics selectivity panel (BPS Bioscience); format: biochemical
T3 construct: purchased BPS Bioscience (contract panel)
T3 sequence (Q9Y6K1 whole entry, looked up): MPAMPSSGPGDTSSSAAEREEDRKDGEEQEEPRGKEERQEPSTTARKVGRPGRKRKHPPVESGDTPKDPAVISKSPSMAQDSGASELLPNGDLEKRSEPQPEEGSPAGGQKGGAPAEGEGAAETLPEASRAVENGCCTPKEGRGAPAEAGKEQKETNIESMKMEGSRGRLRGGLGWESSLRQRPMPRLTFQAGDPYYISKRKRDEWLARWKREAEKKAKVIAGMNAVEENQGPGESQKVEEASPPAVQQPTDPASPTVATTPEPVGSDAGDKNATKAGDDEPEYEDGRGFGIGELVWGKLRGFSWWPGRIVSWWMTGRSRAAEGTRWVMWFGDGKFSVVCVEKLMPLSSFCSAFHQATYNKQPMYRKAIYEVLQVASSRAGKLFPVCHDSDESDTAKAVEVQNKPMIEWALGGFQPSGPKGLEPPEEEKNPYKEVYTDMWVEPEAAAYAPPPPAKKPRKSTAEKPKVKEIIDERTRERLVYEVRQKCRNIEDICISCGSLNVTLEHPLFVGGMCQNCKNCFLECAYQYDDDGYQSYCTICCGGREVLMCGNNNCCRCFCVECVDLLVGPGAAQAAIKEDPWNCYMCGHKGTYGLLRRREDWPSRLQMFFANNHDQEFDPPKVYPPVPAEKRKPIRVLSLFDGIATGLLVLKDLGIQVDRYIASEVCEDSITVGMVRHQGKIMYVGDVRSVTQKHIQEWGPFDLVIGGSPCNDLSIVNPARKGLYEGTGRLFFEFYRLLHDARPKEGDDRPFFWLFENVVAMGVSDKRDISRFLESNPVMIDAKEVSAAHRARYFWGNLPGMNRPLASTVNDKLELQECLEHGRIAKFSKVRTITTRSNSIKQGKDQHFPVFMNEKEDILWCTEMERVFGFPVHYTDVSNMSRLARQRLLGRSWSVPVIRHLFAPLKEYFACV

PRMT3 = target: T4, PRMT3 (Homo sapiens, UniProt O60678); test: Epigenetics selectivity panel (BPS Bioscience); format: biochemical
T4 construct: purchased DiscoverX KINOMEscan (kinases); BPS Bioscience (epigenetic targets)
T4 sequence (O60678 whole entry): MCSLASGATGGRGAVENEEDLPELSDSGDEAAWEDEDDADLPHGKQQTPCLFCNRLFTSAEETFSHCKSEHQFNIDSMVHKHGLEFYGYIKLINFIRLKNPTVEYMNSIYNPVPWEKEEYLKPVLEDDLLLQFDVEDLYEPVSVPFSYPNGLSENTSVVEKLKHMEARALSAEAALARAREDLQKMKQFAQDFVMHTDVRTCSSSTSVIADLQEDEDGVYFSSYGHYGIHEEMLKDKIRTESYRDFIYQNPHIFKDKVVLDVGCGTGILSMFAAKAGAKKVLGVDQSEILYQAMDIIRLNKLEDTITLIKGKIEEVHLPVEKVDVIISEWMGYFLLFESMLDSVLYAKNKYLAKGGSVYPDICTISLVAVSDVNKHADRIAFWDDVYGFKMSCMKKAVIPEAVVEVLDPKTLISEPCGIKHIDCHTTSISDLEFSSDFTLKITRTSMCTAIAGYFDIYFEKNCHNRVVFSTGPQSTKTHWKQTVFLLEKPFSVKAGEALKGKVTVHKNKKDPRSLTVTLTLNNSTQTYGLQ

BAZ2B = target: T5, BAZ2B (Homo sapiens, UniProt Q9UIF8); test: Epigenetics selectivity panel (BPS Bioscience); format: binding
T5 construct: purchased DiscoverX KINOMEscan (kinases); BPS Bioscience (epigenetic targets)
T5 sequence (Q9UIF8 whole entry): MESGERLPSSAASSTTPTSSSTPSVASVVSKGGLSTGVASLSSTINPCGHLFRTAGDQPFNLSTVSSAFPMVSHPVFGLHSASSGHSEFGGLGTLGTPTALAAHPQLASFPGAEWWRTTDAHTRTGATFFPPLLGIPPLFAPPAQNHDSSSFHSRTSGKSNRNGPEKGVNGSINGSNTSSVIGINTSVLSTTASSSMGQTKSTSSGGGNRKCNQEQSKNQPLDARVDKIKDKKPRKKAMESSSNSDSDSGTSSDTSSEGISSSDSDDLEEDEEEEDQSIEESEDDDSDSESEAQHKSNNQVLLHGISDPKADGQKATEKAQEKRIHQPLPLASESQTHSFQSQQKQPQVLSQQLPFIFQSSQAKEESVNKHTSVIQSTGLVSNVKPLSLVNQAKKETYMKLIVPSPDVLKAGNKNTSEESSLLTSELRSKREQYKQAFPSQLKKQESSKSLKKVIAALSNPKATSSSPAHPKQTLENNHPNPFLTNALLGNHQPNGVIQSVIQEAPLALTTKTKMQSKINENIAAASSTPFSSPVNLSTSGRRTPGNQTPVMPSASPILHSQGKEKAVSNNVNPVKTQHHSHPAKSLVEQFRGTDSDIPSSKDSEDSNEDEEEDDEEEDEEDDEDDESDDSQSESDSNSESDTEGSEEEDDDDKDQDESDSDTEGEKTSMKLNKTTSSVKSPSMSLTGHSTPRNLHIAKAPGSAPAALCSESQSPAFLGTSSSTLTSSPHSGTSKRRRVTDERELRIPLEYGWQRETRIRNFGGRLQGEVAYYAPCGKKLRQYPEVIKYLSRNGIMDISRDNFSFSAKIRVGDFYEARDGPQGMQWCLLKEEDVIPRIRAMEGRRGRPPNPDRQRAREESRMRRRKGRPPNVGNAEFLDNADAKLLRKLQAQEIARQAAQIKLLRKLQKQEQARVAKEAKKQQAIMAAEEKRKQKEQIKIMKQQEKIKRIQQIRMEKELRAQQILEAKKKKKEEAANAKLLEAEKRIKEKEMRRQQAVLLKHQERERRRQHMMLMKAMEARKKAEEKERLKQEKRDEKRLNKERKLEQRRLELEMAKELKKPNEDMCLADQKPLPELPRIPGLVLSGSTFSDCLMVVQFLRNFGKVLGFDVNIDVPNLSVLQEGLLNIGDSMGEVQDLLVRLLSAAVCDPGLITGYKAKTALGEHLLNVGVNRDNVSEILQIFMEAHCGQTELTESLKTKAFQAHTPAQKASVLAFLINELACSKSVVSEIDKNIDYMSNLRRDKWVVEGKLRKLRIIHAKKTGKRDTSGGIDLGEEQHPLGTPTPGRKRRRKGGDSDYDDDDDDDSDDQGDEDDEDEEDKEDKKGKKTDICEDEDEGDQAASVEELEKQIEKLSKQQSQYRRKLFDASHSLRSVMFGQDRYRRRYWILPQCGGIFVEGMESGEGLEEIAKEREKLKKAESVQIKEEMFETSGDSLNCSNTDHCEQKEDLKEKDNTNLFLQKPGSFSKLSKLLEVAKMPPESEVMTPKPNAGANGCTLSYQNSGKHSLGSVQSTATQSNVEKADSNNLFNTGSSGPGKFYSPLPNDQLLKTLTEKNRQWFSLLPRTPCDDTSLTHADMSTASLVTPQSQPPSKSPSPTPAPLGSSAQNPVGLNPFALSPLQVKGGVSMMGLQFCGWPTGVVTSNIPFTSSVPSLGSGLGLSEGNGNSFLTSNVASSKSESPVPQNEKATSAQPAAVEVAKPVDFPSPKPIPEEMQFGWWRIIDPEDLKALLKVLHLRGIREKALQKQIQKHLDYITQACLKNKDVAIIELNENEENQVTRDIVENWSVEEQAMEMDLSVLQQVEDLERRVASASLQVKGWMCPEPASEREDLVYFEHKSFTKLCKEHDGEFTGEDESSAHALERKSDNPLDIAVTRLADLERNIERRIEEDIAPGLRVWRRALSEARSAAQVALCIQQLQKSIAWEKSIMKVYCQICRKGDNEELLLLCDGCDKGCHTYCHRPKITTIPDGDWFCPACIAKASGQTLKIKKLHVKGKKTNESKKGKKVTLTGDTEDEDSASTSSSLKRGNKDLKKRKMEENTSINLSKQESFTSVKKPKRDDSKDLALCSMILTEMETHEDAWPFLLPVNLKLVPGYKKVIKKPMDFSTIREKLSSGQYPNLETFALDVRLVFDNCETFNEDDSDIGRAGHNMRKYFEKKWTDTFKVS

ATAD2A = target: T6, ATAD2A (Homo sapiens, UniProt Q6PL18); test: Epigenetics selectivity panel (BPS Bioscience); format: binding
T6 construct: purchased DiscoverX KINOMEscan (kinases); BPS Bioscience (epigenetic targets)
T6 sequence (Q6PL18 whole entry): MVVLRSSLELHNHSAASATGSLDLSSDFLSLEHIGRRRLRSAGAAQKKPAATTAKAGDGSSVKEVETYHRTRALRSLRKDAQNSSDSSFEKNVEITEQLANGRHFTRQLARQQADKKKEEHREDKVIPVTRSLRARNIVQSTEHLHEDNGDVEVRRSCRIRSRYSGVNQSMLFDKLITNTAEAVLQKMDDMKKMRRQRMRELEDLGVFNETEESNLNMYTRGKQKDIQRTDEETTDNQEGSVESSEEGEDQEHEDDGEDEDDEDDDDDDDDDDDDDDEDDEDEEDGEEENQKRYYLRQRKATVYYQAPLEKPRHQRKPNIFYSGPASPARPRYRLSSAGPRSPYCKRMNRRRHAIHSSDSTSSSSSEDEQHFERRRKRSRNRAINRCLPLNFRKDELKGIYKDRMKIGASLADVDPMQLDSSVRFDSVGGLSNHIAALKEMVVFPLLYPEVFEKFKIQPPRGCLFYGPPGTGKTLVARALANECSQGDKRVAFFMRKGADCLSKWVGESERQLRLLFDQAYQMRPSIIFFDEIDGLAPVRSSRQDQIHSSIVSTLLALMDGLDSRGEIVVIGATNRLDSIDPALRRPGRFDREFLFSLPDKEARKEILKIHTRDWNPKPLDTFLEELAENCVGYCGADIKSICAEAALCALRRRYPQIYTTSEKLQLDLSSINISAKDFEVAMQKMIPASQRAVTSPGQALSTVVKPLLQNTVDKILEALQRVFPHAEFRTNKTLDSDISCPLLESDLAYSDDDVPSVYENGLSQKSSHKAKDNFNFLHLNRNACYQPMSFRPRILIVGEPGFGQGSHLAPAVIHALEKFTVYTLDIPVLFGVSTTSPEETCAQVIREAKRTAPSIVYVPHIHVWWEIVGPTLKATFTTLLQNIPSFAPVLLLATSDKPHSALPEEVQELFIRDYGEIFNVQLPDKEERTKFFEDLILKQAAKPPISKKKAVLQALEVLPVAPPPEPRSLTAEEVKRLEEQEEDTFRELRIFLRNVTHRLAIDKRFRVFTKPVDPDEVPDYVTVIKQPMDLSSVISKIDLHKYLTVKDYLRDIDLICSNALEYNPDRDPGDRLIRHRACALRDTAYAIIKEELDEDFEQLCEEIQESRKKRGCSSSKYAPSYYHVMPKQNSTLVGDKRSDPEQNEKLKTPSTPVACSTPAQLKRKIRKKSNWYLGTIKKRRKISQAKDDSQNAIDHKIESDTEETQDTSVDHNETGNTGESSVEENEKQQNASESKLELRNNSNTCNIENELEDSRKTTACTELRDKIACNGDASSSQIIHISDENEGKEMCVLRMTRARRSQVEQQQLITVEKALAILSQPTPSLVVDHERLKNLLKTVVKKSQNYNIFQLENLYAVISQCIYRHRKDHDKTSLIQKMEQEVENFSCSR

in vitro = format: cell-based; conditions: human
Description: Cell viability was determined by measuring the concentration of cellular adenosine triphosphate (ATP) using the ATP1Step Kit as described by the manufacturer (Perkin-Elmer). PBMCs were isolated following the regular density gradient centrifugation procedure with Ficoll. Details are provided in Supplementary Information. […]
each test plate followed by incubation for 10 min at room temperature on an orbital shaker. ATP concentration was determined by reading chemical luminescence using the Envision plate reader (PerkinElmer). The percentage of viable cells relative to the non-drug treated controls was determined for […]
Cells were plated in 96-well black microplates at 100,000 cells/well density with DMEM medium (containing 10% FBS and antibiotics) and were incubated at 37 °C (5% CO2, 95% humidity) for 24 h. […] Following this 72 h exposure to test compounds, cell viability in each well was determined by measuring the concentration of cellular adenosine triphosphate (ATP) using the ATP1Step Kit as described by the manufacturer (Perkin-Elmer). […] ATP concentration was determined by reading chemical luminescence using the Envision plate reader (PerkinElmer). […]
sampler temperature was set at 7 °C and column temperature at 50 °C. For detection and quantification, the electrospray ionization operated in the positive mode, and the collision gas used was ultra-pure argon at a flow rate of 0.15 mL min−1. […]

MLL-WARD = target: T7, MLL-WARD (Homo sapiens, UniProt Q03164); test: Epigenetics selectivity panel (BPS Bioscience); format: biochemical
T7 construct: purchased DiscoverX KINOMEscan (kinases); BPS Bioscience (epigenetic targets)

COLO-205 = test: Cell proliferation assay (MTS); format: cell-based; conditions: Homo sapiens, Colorectal
UM-UC-7 = test: Cell proliferation assay (MTS); format: cell-based; conditions: Homo sapiens; Bladder
RT112 = test: Cell proliferation assay (MTS); format: cell-based; conditions: Homo sapiens, RT-112; Bladder

| SMILES | GI50 (PEER) | GI50 (NOMO-1) | GI50 (WM-35) | inhibition at 10 µM (ATAD2B) | inhibition at 10 µM (BRD4(BD1+BD2)) | IC50 (BRD4(BD1+BD2); BPS) | GI50 (KMS28BM) | IC50 (DNMT3A) | inhibition at 10 µM (PRMT3) | inhibition at 10 µM (BAZ2B) | inhibition at 10 µM (ATAD2A) | CC50 at 72 h (in vitro) | inhibition at 10 µM (MLL-WARD) | GI50 (COLO-205) | GI50 (UM-UC-7) | GI50 (RT112) |
| --- | --- | --- | --- | --- | --- | --- | --- | --- | --- | --- | --- | --- | --- | --- | --- | --- |
| COc1cc2c(NC3CCN(C)CC3)cc(-c3ccc(C)o3)nc2cc1OCCCN1CCCC1 [CM-272, 6-methoxy-2-(5-methyl-2-furyl)-N-(1-methyl-4-piperidyl)-7-(3-pyrrolidin-1-ylpropoxy)quinolin-4-amine] | 930 nM | 3560 nM | 854 nM | 0% | 56% | 1500 nM | 1630 nM | 85 nM | 7% | 0% | 0% | 1900 nM | 4% | 679 nM | 964 nM | 899 nM |
| COc1cc2c(NCC3CCN(C)CC3)cc(-c3ccc(C)o3)nc2cc1OCCCN1CCCC1 [CM-579, 6-methoxy-2-(5-methyl-2-furyl)-N-[(1-methyl-4-piperidyl)methyl]-7-(3-pyrrolidin-1-ylpropoxy)quinolin-4-amine] | > 10000 nM | > 10000 nM | 168 nM | 0% | 0% |  | 7820 nM | 92 nM | 5% | 0% | 0% | 7390 nM | 2% | 275 nM | 531 nM | 319 nM |
